Assay results as given in patent US20240024409A1, “N-f-MLF DERIVATIVES THAT INHIBIT FORMYL PEPTIDE RECEPTORS FOR THE TREATMENT OF DISEASE” (University of South Alabama, priority 2022, published 2024).

Assays:
circulating IgE levels = assay: IgE production in vivo (serum IgE by ELISA); set-up: species or system STAT3^mut mice; details: 2.5 mg/kg once per week for 3 weeks
Experimental: Groups (n=4-6/group) were treated with fMLYF (2.5 mg/kg) or vehicle once per week for 3 weeks. Serum was collected to measure effects of peptide treatment on circulating IgE levels via ELISA (FIG. 1 and FIG. 5).

[1] = system: Primary STAT3^mut bone marrow-derived mast cells (BMMC); assay: BMMC degranulation (LAMP-1 on the plasma membrane by flow cytometry); format: cell-based, mice; details: DNP-specific IgE then DNP; peptide added prior to DNP; varying concentrations
Experimental: Primary bone marrow-derived mast cells (BMMC) were cultured from STAT3^mut mice in RPMI-1640 Medium (Thermo Fisher Scientific) containing 10% fetal bovine serum (FBS), interleukin-3 (IL-3) and stem cell factor (SCF). To induce degranulation, BMMC were incubated with dinitrophenyl (DNP)-specific IgE followed by addition of DNP to crosslink IgE. To test effects of fMLFF and fMLYF, different concentrations were administered prior to the addition of DNP. Degranulation was measured by the amount of lysosomal-associated membrane protein 1 (LAMP-1) on the plasma membrane by flow cytometry.
Primary STAT3^mut BMMC were treated with varying concentrations of fMLFF and fMLYF (FIG. 3A and FIG. 3B). Data shown in FIG. 3B were summarized from 3 individual experiments; bars indicate means+SEM; **p<0.001; ****p<0.00001, 2-way ANOVA with Tukey's multiple comparison. Assays were performed independently with fMLFF and fMLYF; data shown are cumulative for experiments using fMLFF and fMLYF individually.

fMLFF
IgE production in vivo (circulating IgE levels): attenuated
mast cell degranulation in vitro [1]: attenuated
